Results taken from ChEMBL document CHEMBL4800722, “Data for DCP probe BI 605906” (2021).

How the values were obtained:
[1] = biological target: Cyclin-G-associated kinase (Homo sapiens, UniProt O14976); test: Dose response measurement (GAK)
[2] = biological target: Polyunsaturated fatty acid lipoxygenase ALOX15 (Oryctolagus cuniculus) (UniProt P12530); test: 15LO Eurofins SafetyScreen44 (BI); conditions: Compound concentration 10.0 uM
[3] = biological target: Voltage-dependent L-type calcium channel subunit alpha-1C (CA+/DHPSI/RA) (Rattus norvegicus, UniProt P22002); test: CA+/DHPSI/RA Eurofins SafetyScreen44 (BI); conditions: read-out: % Ctrl
Sequence of Voltage-dependent L-type calcium channel subunit alpha-1C (CA+/DHPSI/RA) (P22002 whole entry): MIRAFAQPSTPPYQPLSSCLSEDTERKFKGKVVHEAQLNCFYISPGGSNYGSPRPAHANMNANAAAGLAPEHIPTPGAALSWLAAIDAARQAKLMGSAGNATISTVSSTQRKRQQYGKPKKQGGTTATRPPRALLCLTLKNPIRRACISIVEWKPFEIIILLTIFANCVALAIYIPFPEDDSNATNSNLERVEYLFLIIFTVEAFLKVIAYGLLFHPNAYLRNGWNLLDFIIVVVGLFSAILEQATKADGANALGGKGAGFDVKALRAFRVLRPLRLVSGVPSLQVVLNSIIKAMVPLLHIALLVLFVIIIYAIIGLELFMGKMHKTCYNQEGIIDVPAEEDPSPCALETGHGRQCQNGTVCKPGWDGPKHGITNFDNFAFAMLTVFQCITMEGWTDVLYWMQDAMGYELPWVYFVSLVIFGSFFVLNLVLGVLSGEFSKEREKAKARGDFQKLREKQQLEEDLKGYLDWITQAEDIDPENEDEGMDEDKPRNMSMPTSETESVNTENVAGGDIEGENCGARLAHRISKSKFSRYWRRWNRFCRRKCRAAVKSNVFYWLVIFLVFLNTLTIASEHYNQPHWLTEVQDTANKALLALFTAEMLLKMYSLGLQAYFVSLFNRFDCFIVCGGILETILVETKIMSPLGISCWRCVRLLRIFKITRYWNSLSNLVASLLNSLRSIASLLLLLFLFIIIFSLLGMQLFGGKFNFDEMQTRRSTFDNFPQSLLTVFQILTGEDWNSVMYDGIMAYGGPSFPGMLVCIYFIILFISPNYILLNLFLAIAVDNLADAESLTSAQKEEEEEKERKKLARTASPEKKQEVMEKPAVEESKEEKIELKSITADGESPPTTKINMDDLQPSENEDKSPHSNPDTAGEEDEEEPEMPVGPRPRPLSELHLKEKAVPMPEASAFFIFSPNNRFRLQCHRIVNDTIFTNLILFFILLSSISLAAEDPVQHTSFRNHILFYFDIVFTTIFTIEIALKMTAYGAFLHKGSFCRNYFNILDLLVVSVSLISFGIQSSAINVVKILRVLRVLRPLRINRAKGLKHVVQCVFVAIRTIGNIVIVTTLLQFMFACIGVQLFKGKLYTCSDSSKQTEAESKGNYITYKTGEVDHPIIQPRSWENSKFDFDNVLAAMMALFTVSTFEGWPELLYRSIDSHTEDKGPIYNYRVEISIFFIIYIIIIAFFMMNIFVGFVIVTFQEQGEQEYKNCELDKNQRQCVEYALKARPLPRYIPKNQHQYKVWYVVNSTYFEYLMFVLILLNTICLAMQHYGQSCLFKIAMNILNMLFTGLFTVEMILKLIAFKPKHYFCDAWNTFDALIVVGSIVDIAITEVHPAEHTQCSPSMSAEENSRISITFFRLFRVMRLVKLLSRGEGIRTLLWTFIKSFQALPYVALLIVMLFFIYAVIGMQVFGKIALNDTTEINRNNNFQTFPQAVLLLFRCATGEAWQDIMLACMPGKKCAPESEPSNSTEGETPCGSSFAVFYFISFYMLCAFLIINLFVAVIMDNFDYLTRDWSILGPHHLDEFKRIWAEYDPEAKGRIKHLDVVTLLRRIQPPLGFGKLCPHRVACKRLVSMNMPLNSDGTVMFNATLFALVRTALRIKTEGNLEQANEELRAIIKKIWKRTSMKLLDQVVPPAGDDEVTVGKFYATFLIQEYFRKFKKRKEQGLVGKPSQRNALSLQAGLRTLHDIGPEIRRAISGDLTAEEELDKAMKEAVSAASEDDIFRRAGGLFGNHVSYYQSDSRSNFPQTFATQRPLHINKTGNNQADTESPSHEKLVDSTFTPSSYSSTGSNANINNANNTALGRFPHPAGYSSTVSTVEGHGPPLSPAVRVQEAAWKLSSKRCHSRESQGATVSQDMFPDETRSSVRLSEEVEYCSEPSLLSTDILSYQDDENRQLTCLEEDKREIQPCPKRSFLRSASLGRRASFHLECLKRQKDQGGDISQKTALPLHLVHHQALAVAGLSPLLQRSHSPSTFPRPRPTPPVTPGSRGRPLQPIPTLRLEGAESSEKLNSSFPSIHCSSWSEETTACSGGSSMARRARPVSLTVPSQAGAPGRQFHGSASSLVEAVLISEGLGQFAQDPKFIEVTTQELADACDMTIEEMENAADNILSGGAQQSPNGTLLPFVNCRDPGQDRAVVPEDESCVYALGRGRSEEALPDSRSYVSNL

[4] = biological target: Phosphodiesterase 4 (Homo sapiens) (UniProt P27815+Q08499+Q07343+Q08493); test: PDE-IV/HU Eurofins SafetyScreen44 (BI); format: protein assay; conditions: Compound concentration 10.0 uM
[5] = biological target: Death-associated protein kinase 2 (Homo sapiens) (UniProt Q9UIK4); test: DAPK2 Invitrogen Lab (UK) kinase screen (BI); conditions: Compound concentration 1.0 uM
[6] = biological target: Serine/threonine-protein kinase LATS2 (Homo sapiens) (UniProt Q9NRM7); test: LATS2 Invitrogen Lab (UK) kinase screen (BI); conditions: Compound concentration 1.0 uM
Homo sapiens = organism: Homo sapiens; test: PIK3CA/PIK3R3 Invitrogen Lab (UK) kinase screen (BI); conditions: Compound concentration 1.0 uM
[7] = biological target: Phosphatidylinositol 4-phosphate 5-kinase type-1 alpha (Homo sapiens) (UniProt Q99755); test: PIP5K1A Invitrogen Lab (UK) kinase screen (BI); conditions: Compound concentration 1.0 uM
[8] = biological target: Serine/threonine-protein kinase TAO1 (Homo sapiens) (UniProt Q7L7X3); test: TAOK1 Invitrogen Lab (UK) kinase screen (BI); conditions: Compound concentration 1.0 uM
[9] = biological target: Serine/threonine-protein kinase B-raf (Homo sapiens) (UniProt P15056); test: BRAF Invitrogen Lab (UK) kinase screen (BI); conditions: Compound concentration 1.0 uM
[10] = biological target: Ephrin type-A receptor 3 (Homo sapiens) (UniProt P29320); test: EPHA3 Invitrogen Lab (UK) kinase screen (BI); conditions: Compound concentration 1.0 uM
[11] = biological target: Serine/threonine-protein kinase haspin (Homo sapiens) (UniProt Q8TF76); test: GSG2 Invitrogen Lab (UK) kinase screen (BI); conditions: Compound concentration 1.0 uM
[12] = biological target: Homeodomain-interacting protein kinase 2 (Homo sapiens) (UniProt Q9H2X6); test: HIPK2 Invitrogen Lab (UK) kinase screen (BI); conditions: Compound concentration 1.0 uM
[13] = biological target: NT-3 growth factor receptor (Homo sapiens) (UniProt Q16288); test: NTRK3 Invitrogen Lab (UK) kinase screen (BI); conditions: Compound concentration 1.0 uM
[14] = biological target: Serine/threonine-protein kinase Chk2 (Homo sapiens) (UniProt O96017); test: CHK2 DUNDEE kinase screen (BI); conditions: Compound concentration 10.0 uM
[15] = biological target: MAP kinase-activated protein kinase 3 (Homo sapiens) (UniProt Q16644); test: MAPKAP-K3 DUNDEE kinase screen (BI); conditions: Compound concentration 10.0 uM
Sequence of MAP kinase-activated protein kinase 3 (Homo sapiens) (Q16644 whole entry, looked up): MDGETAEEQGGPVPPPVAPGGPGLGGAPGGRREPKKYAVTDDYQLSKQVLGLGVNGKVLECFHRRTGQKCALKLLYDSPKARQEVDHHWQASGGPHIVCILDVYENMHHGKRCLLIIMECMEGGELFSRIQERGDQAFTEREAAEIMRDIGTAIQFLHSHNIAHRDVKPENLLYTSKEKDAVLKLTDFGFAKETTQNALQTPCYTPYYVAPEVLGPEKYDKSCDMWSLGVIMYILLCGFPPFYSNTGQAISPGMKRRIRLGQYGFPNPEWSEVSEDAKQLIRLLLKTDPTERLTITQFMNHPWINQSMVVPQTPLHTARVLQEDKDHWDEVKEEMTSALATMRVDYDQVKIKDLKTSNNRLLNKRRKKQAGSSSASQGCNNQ

[16] = biological target: Serine/threonine-protein kinase Nek6 (Homo sapiens) (UniProt Q9HC98); test: NEK6 DUNDEE kinase screen (BI); conditions: Compound concentration 10.0 uM
[17] = biological target: Serine/threonine-protein kinase PLK1 (Homo sapiens) (UniProt P53350); test: PLK1 DUNDEE kinase screen (BI); conditions: Compound concentration 10.0 uM
[18] = biological target: T1, GABA-A receptor; anion channel (Rattus norvegicus) (UniProt O09028+P15431+P18506+P18508+P19969+P20236+P23574+P23576+P28471+P28473+P30191+P62813+P63079+P63138+Q91ZM7+Q9ES14); conditions: Compound concentration 10.0 uM
[19] = biological target: Beta-1 adrenergic receptor (Homo sapiens) (UniProt P08588); conditions: Compound concentration 10.0 uM
[20] = biological target: T1, GABA-A receptor; anion channel (Rattus norvegicus); conditions: Compound concentration 10.0 uM; remark: listed apart in the source
[21] = biological target: Adrenergic receptor alpha-1 (Rattus norvegicus) (UniProt P15823+P23944+P43140)
[22] = biological target: Cannabinoid receptor 2 (Homo sapiens) (UniProt P34972); conditions: Compound concentration 10.0 uM
[23] = biological target: Phospholipase A2 (Sus scrofa) (UniProt A0A8D1VEY7); conditions: Compound concentration 10.0 uM
[24] = biological target: AMPK alpha1/beta1/gamma2 (Homo sapiens) (UniProt Q9UGJ0+Q9Y478+Q13131); conditions: Compound concentration 1.0 uM
[25] = biological target: Mitogen-activated protein kinase 7 (Homo sapiens) (UniProt Q13164); conditions: Compound concentration 1.0 uM
[26] = biological target: Serine/threonine-protein kinase PLK4 (Homo sapiens) (UniProt O00444); conditions: Compound concentration 1.0 uM
[27] = biological target: RAC-beta serine/threonine-protein kinase (Homo sapiens) (UniProt P31751); conditions: Compound concentration 1.0 uM
[28] = biological target: Vascular endothelial growth factor receptor 1 (Homo sapiens) (UniProt P17948); conditions: Compound concentration 1.0 uM
[29] = biological target: Insulin receptor (Homo sapiens) (UniProt P06213)
Sequence of Insulin receptor (Homo sapiens) (P06213 28-758 limits assumed): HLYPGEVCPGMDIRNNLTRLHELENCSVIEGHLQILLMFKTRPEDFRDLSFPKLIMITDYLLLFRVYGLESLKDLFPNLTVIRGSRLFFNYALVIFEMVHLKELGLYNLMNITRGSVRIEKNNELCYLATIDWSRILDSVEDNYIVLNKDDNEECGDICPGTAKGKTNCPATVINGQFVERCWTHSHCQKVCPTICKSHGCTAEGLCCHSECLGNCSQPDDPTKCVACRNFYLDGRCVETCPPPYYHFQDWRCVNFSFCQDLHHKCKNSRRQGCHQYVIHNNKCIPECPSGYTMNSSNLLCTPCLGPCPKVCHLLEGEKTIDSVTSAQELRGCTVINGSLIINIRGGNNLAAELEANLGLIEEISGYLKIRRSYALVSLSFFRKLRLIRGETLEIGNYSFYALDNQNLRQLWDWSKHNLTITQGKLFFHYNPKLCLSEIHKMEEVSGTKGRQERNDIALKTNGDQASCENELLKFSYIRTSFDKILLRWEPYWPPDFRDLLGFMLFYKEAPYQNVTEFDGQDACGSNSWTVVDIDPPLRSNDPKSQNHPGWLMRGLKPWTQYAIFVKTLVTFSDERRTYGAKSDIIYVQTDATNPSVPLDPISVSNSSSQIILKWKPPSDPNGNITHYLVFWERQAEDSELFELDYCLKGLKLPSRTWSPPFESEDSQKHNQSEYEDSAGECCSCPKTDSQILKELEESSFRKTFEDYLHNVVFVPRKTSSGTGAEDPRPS
Sequence of Insulin receptor (Homo sapiens) (P06213 763-1382 limits assumed): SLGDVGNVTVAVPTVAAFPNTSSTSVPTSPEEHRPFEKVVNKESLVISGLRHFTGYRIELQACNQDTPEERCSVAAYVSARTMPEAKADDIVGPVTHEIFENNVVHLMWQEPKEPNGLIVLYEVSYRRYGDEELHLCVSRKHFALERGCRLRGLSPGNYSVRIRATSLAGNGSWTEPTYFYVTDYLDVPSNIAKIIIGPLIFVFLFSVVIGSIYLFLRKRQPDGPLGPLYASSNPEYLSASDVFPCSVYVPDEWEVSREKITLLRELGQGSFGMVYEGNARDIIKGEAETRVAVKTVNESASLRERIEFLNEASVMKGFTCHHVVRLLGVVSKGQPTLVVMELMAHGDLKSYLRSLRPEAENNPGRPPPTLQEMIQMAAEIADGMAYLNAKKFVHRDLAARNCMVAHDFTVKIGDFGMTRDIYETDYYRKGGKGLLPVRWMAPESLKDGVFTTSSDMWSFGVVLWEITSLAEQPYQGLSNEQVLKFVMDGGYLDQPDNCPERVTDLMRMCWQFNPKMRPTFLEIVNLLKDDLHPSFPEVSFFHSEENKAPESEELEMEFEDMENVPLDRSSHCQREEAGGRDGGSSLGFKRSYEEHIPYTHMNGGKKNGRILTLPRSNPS

[30] = biological target: Tyrosine-protein kinase JAK2 (Homo sapiens) (UniProt O60674); conditions: Compound concentration 1.0 uM
[31] = biological target: Mitogen-activated protein kinase kinase kinase 8 (Homo sapiens) (UniProt P41279); conditions: Compound concentration 1.0 uM
[32] = biological target: Mitogen-activated protein kinase kinase kinase kinase 5 (Homo sapiens) (UniProt Q9Y4K4); conditions: Compound concentration 1.0 uM
[33] = biological target: MAP kinase-activated protein kinase 3 (Homo sapiens) (UniProt Q16644); conditions: Compound concentration 1.0 uM
[34] = biological target: MAP kinase-activated protein kinase 5 (Homo sapiens) (UniProt Q8IW41); conditions: Compound concentration 1.0 uM
Sequence of MAP kinase-activated protein kinase 5 (Homo sapiens) (Q8IW41 whole entry): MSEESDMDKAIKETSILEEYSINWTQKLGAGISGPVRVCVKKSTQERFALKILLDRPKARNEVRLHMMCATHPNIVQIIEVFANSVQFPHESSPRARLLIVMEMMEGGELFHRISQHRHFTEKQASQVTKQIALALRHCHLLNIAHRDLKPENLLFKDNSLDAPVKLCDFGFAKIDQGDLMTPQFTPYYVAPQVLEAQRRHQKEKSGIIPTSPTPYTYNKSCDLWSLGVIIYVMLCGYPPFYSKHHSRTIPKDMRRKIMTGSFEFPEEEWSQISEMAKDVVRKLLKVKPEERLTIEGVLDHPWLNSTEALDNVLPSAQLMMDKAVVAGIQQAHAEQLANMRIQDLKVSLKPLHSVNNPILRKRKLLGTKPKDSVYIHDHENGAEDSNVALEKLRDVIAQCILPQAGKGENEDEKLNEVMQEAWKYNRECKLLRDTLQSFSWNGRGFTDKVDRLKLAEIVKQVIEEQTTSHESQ

[35] = biological target: Misshapen-like kinase 1 (Homo sapiens) (UniProt Q8N4C8); conditions: Compound concentration 1.0 uM
[36] = biological target: Protein kinase C beta type (Homo sapiens) (UniProt P05771); conditions: Compound concentration 1.0 uM
[37] = biological target: Serine/threonine-protein kinase TAO3 (Homo sapiens) (UniProt Q9H2K8); conditions: Compound concentration 1.0 uM
[38] = biological target: Tyrosine-protein kinase TXK (Homo sapiens) (UniProt P42681); conditions: Compound concentration 1.0 uM
[39] = biological target: Tyrosine-protein kinase ZAP-70 (Homo sapiens) (UniProt P43403); conditions: Compound concentration 1.0 uM
Sequence of Tyrosine-protein kinase ZAP-70 (Homo sapiens) (P43403 whole entry): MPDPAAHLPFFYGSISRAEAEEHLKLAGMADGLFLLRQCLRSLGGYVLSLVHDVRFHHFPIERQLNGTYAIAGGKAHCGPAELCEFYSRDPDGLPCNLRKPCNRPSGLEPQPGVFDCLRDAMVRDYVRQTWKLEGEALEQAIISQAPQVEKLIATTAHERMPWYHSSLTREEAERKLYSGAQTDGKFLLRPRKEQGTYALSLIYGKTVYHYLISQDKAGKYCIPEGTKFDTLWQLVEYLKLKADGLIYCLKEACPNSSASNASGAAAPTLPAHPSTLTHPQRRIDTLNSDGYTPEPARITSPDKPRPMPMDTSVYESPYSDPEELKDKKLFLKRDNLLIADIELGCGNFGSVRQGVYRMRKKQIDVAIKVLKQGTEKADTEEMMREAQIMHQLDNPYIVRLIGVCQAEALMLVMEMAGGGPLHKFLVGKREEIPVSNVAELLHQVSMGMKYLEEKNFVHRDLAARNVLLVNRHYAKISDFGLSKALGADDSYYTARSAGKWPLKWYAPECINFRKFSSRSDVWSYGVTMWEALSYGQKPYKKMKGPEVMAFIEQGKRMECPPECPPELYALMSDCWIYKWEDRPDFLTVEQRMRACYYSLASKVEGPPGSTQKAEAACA

Structure (SMILES): CCC(F)(F)c1cc(N2CCC(S(C)(=O)=O)CC2)nc2sc(C(N)=O)c(N)c12 [BI-605906]
- IC50 [1]: 188 nM
- residual activity [2]: 79%
- activity at 1 µM ([3]; compound concentration 1 uM): 104% (not active)
- activity at 3 µM ([3]; compound concentration 3 uM): 94% (not active)
- activity at 10 µM ([3]; compound concentration 10 uM): 91% (not active)
- activity at 30 µM ([3]; compound concentration 30 uM): 77% (not active)
- activity at 100 µM ([3]; compound concentration 100 uM): 41.5%
- residual activity [4]: 68%
- residual activity [5]: 79%
- residual activity [6]: 88%
- residual activity (Homo sapiens): 103%
- residual activity [7]: 83%
- residual activity [8]: 88%
- residual activity [9]: 72%
- residual activity [10]: 85%
- residual activity [11]: 70%
- residual activity [12]: 81%
- residual activity [13]: 84%
- residual activity [14]: 49.7%
- residual activity [15]: 90.2%
- residual activity [16]: 83.3%
- residual activity [17]: 86.8%
- inhibition [18]: 32.6%
- inhibition [19]: -8.38%
- inhibition [20]: 8.92%
- residual activity ([21]; Compound concentration 10.0 uM): 109%
- residual activity ([21]; Compound concentration 100.0 uM): 93%
- residual activity [22]: 91%
- residual activity [23]: 96%
- residual activity [24]: 89%
- residual activity [25]: 98%
- residual activity [26]: 89%
- residual activity [27]: 95%
- residual activity [28]: 100%
- residual activity ([29]; Compound concentration 1.0 uM): 94%
- residual activity ([29]; Compound concentration 10.0 uM): 93%
- residual activity [30]: 94%
- residual activity [31]: 90%
- residual activity [32]: 101%
- residual activity [33]: 93%
- residual activity [34]: 92%
- residual activity [35]: 96%
- residual activity [36]: 99%
- residual activity [37]: 93%
- residual activity [38]: 93%
- residual activity [39]: 95%
